Experimental findings from patent EP1056460B1, “PHARMACEUTICAL PREPARATIONS FOR SELECTIVELY SUPPLEMENTING OESTROGEN DEFICIENCY IN THE CENTRAL NERVOUS SYSTEM” (priority 1998, dated 1999) are described below.

For data set [1], the system named is Endometriums. The data set can be described thus: Computer-aided measurement of endometrium thickness in uterus preparations. It counts as in vivo, Ratten. Particulars: ovariectomised rats, 1 µg daily s.c. for 7 days.
Data set [2] concerns Uterus. Description: Uterus weight after 14 days of daily subcutaneous treatment (cognition experiment). The data set is classed as in vivo, Wistar-Ratten. The conditions noted are these: for Uterusgewichte (x ± SEM): after 14 days of daily s.c. treatment: 17b-Estradiol 1 µg, 17a-Estradiol 100 µg, prototype 30 µg, n = 8-10, OVX 53 ± 2. The source says:
(§1) Eine Korrelation zwischen Serum-Estrogenspiegel und kognitiver Leistung wurde auch im Tierversuchsmodell nachgewiesen (Kondo Y, Suzuki K, Sakuma Y, Estrogen aleviates cognitive dysfunction following transient brain ischemia in ovariectomized gerbils, Neurosci Lett 238: 45-48, 1997). […] Die gesamte Behandlungsdauer war 14 Tage. Am 5. und 6. Behandlungstag wurden Trainingssitzungen zum Erlernen eines konditionierten Escape-Verhaltens nach einer etablierten Methode (Diaz-Veliz G et al., Influence of the estrous cycle, ovariectomy and estradiol replacement upon the acquisition of conditioned avoidance responses in rats, Physiol Behav 46: 397-401, 1989) durchgeführt. Jedes Tier wurde in einer Sitzung 50 Mal der Kombination aus einem unbedingten (elektrische Reizung) und zwei konditionierenden Stimuli (Licht- und Schall-Signal) exponiert. Am 7. Behandlungstag wurde die Retention des erlernten Verhaltensmusters getestet. Nach einer 6-tägigen Unterbrechung der Lernsitzungen, wurde am 14. Behandlungstag die Extinktion des erlernten konditionierten Verhaltens ermittelt. Die Anzahl der korrekten Verhaltensreaktionen (Escape in das "sichere" Abteil des Apparats innerhalb von drei Sekunden nach Präsentation der konditionierenden Signale) aus 50 aufeinanderfolgenden Expositionen wurde als Kriterium für die Bewertung der Retention bzw. Extinktion des erlernten Verhaltens verwendet.

Data set [3] is described as follows: Serum concentration of 17b-Estradiol after 7 days of subcutaneous treatment (biotransformation). The data set is classed as in vivo, Ratten. The conditions noted are these: ovariectomised rats, daily s.c. for 7 days: 17a-Estradiol 100 µg, prototype 30 µg, 17b-Estradiol 1 µg; placebo below detection limit. The source says: Sternzeichen bezeichnen signifikante Differenzen im Vergleich zu den Werten, die bei Placebo-behandelten Tieren gemessen wurden; die Letzteren waren unterhalb der Nachweisgrenze der Methode; jede Behandlungsgruppe bestand aus 7 Tieren.

Data set [4] has as its system Oxytozin-Rezeptoren. The data set can be described thus: Density of oxytocin receptors in brain and myometrium by 125I-OVTA autoradiography after 7 days of treatment. It counts as in vivo, Ratten. Particulars: 1 µg daily s.c. for 7 days. The source says: Jede Säule repräsentiert x ± SEM von 4-5 Einzelbestimmungen.
Data set [5] concerns Uterus. The data set can be described thus: Uterus wet weight after chronic subcutaneous application (osmotic minipumps, 7 days) in ovariectomised rats. It counts as in vivo, Wistar-Ratten. An excerpt: Geschlechtsreife (drei Monate alt, Gewicht 250±30 g) weibliche Wistar-Ratten (Tierzucht Schönwalde GmbH, Deutschland) wurden unter Ketamin-Narkose ovarektomiert. […] Am 7. Behandlungstag wurden die Tiere getötet und die Uterus-Feuchtgewichte (bezogen auf 100 g Körpergewicht) ermittelt.
Geschlechtsreife (drei Monate alt, Gewicht 250±30 g) weibliche Wistar-Ratten (Tierzucht Schönwalde GmbH, Deutschland) wurden unter Ketamin-Narkose ovarektomiert. […] Unmittelbar nach der Tötung der Tiere, wurden die Uterus-Feuchtgewichte (bezogen auf 100 g Körpergewicht) ermittelt. Die Messenger-Ribonukleinsäure (mRNA), die die Biosynthese von Oxytozin codiert, wurde durch in-situ-Hybridisierung mit einer spezifischen radioaktiv-markierten Oligodeoxynukleotid-Sonde nach einer etablierten Methode (Fischer D et al, Lactation as a model of naturally reversible hypercorticalism: plasticity in the mechanism governing hypothalamo-pituitary-adrenal activity in the rat, J Clin Invest 96: 1208-1215, 1995), 1995) im hypothalamischen Nucleus paraventricularis (PVN) dargestellt. Behandlungsbedingte Veränderungen in der Transkription des Oxytocin-Gens wurden durch densitometrische Messungen der spezifischen Hybridisierungssignale innerhalb der definierten anatomischen Stukturen quantifiziert.
(§2) Jeder Punkt stellt x ± SEM von 5-7 Einzelbestimmungen.

Data set [6] concerns Alpha-Isoform des Estrogenrezeptors (ERa). Description: Activation of transcription of an ERa-dependent luciferase reporter gene in MCF-7/2A cells. Particulars: EREwtcLUC reporter, 10^-11 to 10^-8 M, 48 h, fold lower than 17b-Estradiol. The data set is classed as cell-based. An excerpt: Brustkrebszellen MCF-7/2A, die die Alpha-Isoform des Estrogenrezeptors (ERa) exprimieren, wurden mit dem Reporter-Plasmid EREwtcLUC stabil transfiziert. Der Reporter enthält den Estrogen-Response Element (ERE) von Vitellogenin, einen Thymidinkinase-Promotor und das Luciferase-codierende Gen von Photinus pyralis. […] Die Zellen wurden lysiert und die Transkription des Luciferase-Reportergens wurde durch Bestimmung der Luciferase-Aktivität mit einem spezifischen Testansatz (Serva/Promega, Deutschland) ermittelt.
Die Figur stellt die Mittelwerte von zwei unabhängigen Versuchen dar.
A general note: In a reporter assay the amount or activity of a reporter protein is the signal.

Data set [7] concerns Oxytocin-Gens. Description: Oxytocin mRNA in the hypothalamic paraventricular nucleus by in-situ hybridisation after chronic treatment in vivo. Also on record: species or system Wistar-Ratten. Particulars: ovariectomised rats, 0,01, 0,1 and 1 µg daily s.c. for 7 days; effect of the prototype very similar to 17b-Estradiol.
Excerpt: Geschlechtsreife (drei Monate alt, Gewicht 250±30 g) weibliche Wistar-Ratten (Tierzucht Schönwalde GmbH, Deutschland) wurden unter Ketamin-Narkose ovarektomiert. […] Unmittelbar nach der Tötung der Tiere, wurden die Uterus-Feuchtgewichte (bezogen auf 100 g Körpergewicht) ermittelt. […] Behandlungsbedingte Veränderungen in der Transkription des Oxytocin-Gens wurden durch densitometrische Messungen der spezifischen Hybridisierungssignale innerhalb der definierten anatomischen Stukturen quantifiziert.
as §2

Data set [8] concerns bcl-2. The data set can be described thus: bcl-2 transcripts in the dentate gyrus of the hippocampus by in-situ hybridisation after chronic treatment in vivo. Also on record: species or system Wistar-Ratten. The conditions noted are these: ovariectomised rats, 0,01, 0,1 and 1 µg daily s.c. for 7 days; effect of the prototype identical to equal doses of 17b-Estradiol.
Excerpt: Das Untersuchungsmaterial stammte von Tieren, die im unter Beispiel 3 beschriebenen Experiment behandelt wurden. […] Bcl-2-Transkripte wurden in Hirnschnitten durch in-situ-Hybridisierung mit einer spezifischen Oligonukleotid-Sonde (Clark RSB et al., Apoptosis-suppressor gene bcl-2 expression after traumatic brain injury in rats, J Neurosci 17: 9172-9182, 1997) dargestellt, und nach der im Beispiel 3 beschriebenen Methode densitometrisch quantifiziert.
Data set [9] relates to kognitive Leistung. Description: Conditioned escape behaviour (retention and extinction) in ovariectomised rats after chronic treatment. The data set is classed as in vivo, Wistar-Ratten. Particulars: 30 µg daily s.c., retention tested on day 7.
Excerpt: as §1

With `C[C@]12CC[C@@H]3c4ccc(O)cc4CC[C@H]3[C@@H]1CC[C@@H]2O` [17b-Estradiol], in [1], the “Stärke des Endometriums (endometriale Proliferation)” value (from here on “Stärke des Endometriums”) is reported as “signifikante endometriale Proliferation”. Besides, the “Uterusgewichte (x ± SEM)” value in data set [2] worked out at 187 ± 9 mg/100g KG. Besides, in [3], the “Serumkonzentrationen von 17b-Estradiol” value is “meßbare Konzentrationen”.
Take `C[C@]12CC[C@@H]3c4ccc(O)cc4CC[C@H]3[C@@H]1CC[C@H]2O` [17a-Estradiol]: the “Induktion von Oxytozin-Bindungsstellen im Myometrium” value in data set [4] (ovariectomised rats) is “signifikant geringere Wirkung”. Besides, the “Stärke des Endometriums” value in data set [1] is “nicht beeinflussen”. The “Serumkonzentrationen von 17b-Estradiol” value in data set [3] is on record as “meßbare Konzentrationen”.
In the case of `C[C@]12CCC3=C(CCc4cc(O)ccc43)[C@@]13C[C@H]3C[C@H]2O` [15βH,3'H-Cycloprop[14,15]-estra-1,3,5(10),8-tetraen-3,17α-diol], the “Wirksamkeit im weiblichen Genitaltrakt im Vergleich mit 17a-Estradiol” value in data set [5] (comparison in words) was “vergleichbar mit derjenigen von 17a-Estradiol”. Besides, the “Wirksamkeit im weiblichen Genitaltrakt, geringer als diese von 17b-Estradiol” value in [5] (fold lower than 17b-Estradiol, from uterotropic daily doses) is given as ~1000 -fach. In data set [5] (ovariectomised rats, 0,01, 0,1 and 1 µg daily s.c. for 7 days (Example 3)), the Uterus-Vergrößerung entry is listed as “keiner Uterus-Vergrößerung”. The “Tagesdosen für signifikante Vergrößerung des Uterus (uterotroper Effekt)” value in data set [5] (ovariectomised rats, s.c. osmotic minipumps, 7 days, uterus wet weight per 100 g body weight) is listed as 30 µg. The “Effizienz (Transkription des Reporters), geringer als diese von 17b-Estradiol” value in data set [6] is reported as 10 -fach. Besides, the “Transkription des Oxytozin-Gens im PVN” value in data set [7] was “dosisabhängig stimuliert”. For the same compound, the “Expression von bcl-2 im Gyrus dentatus” value in [8] is “dosisabhängigen Stimulation”. The “Dichte von Oxytozin-Rezeptoren in allen untersuchten Hirnstrukturen” value in data set [4] (VMN and BNST, ovariectomised rats, 50 pM 125I-OVTA) is “signifikanten Anstieg”. The “Dichte von Oxytozin-Rezeptoren im VMN im Vergleich mit 17b-Estradiol” value in [4] (VMN) is “schwächeren Effekt als 17b-Estradiol”. Moreover, the “Induktion von Oxytozin-Bindungsstellen im Myometrium” value in data set [4] (ovariectomised rats) is recorded as “signifikant geringere Wirkung”. Also, in data set [1], the “Stärke des Endometriums” value is listed as “nicht beeinflussen”. In addition, in data set [9], the “Retention des erlernten Verhaltensmusters” value is “estrogen-ähnlichen stimulierenden Effekt”. The “Uterusgewichte (x ± SEM)” value in [2] was found to be 108 ± 4 mg/100g KG. In data set [2] (prototype 30 µg daily s.c., 14 days), the “uterotrope Wirkung im Vergleich mit 17b-Estradiol in einer täglichen Dosis von 1 µg” value is listed as “signifikant geringer”. Further, in data set [3], the “Serumkonzentrationen von 17b-Estradiol” value is on record as “keinen Anstieg”.
